Results as given in patent publication US20240024520A1, “AUTONOMOUS KNOB DOMAIN PEPTIDES” (UCB BIOPHARMA SRL, priority 2020, published 2024).
Where two headings read alike, the source gives them in different places. Bridge positions count the residues as written; N and C are the ends. Peptide text beside a SMILES is read from it.

Key:
C5 [1] = biological target: T1, C5 (Homo sapiens, UniProt P01031); test: Monoclonal phage screening ELISA, human C5; type: binding; settings: knob domain of the anti-C5 ultralong CDR-H3
T1 sequence (P01031 19-1676): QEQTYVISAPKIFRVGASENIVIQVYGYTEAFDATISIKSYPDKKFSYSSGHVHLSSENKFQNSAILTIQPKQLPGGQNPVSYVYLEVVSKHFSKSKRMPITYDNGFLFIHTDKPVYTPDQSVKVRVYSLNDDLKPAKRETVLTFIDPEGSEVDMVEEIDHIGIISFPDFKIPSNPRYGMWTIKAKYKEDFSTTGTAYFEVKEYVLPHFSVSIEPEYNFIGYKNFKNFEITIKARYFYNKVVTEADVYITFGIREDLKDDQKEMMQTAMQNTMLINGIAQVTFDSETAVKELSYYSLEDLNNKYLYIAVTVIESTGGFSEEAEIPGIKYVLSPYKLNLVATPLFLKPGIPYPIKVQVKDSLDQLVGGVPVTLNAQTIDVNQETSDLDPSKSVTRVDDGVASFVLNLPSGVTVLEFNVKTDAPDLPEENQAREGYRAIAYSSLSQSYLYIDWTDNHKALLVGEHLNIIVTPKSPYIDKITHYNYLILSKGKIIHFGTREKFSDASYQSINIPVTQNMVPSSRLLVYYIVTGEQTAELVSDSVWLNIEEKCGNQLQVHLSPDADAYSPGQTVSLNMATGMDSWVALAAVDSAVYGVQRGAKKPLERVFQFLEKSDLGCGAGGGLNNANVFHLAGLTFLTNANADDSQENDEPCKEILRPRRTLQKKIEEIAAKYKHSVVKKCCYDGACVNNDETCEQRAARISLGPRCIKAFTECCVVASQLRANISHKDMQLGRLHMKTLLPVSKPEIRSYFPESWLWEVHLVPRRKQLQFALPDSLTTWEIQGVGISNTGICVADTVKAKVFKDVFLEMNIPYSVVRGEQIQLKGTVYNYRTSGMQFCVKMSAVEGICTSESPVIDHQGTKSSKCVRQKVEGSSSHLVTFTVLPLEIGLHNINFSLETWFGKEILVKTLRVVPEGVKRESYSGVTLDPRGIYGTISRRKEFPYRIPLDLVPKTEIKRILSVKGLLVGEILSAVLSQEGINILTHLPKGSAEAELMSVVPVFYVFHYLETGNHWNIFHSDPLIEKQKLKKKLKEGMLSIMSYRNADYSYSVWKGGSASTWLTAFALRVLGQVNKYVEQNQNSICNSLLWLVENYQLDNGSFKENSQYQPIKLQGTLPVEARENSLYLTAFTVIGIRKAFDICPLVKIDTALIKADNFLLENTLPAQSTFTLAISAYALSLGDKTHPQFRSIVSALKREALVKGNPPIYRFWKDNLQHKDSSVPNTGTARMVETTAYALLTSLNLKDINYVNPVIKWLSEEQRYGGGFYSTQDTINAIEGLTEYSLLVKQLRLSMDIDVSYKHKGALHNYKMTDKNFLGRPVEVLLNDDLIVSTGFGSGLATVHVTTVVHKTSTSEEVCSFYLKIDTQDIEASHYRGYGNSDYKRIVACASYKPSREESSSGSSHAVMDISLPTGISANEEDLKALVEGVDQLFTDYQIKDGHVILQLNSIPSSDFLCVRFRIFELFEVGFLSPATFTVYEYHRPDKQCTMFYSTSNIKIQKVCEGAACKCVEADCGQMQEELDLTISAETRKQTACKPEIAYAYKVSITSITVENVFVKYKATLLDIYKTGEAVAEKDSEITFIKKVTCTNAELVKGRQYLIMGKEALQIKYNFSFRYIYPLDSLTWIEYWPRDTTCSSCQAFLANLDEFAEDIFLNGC
Description: For the C5 libraries, a single round of enrichment was performed with either human or rat C5 protein. […] Phage were blocked for 30 minutes. Biotinylated antigen was added to the blocked phage at a concentration of 100 nM and incubated at room temperature with mixing.
Colonies were picked into a 96-well culture plate containing selective medium 2TY supplemented with 1% Glucose and 100 μg/ml Carbenicillin and was incubated at 37° C. until wells reached mid-log phase of growth prior to addition of M13K07 helper phage. The block was incubated without shaking for 1 hour to achieve infection and phage production using continued culture in selective media supplemented with 50 μg/ml Kanamycin and 100 μg/ml Carbenicillin.
Binding to antigen was assessed by monoclonal phage ELISA, 96-well flat bottom Nunc MaxiSorp plates (Thermofisher) were coated with a 2.5 μg/ml solution of human, mouse, or rat serum albumin, human C5 or mouse C5 diluted with PBS, and left overnight at 4° C. Negative control plate and Anti-myc tag plate were also prepared.
Monoclonal phage rescue supernatants were blocked with an equal volume of a 2% milk (w/v) in PBS, for serum albumin proteins, or 2% BSA and 2% milk (w/v) in PBS solution. The coating solution was removed from coated Nunc plates and each plate was blocked with 1% BSA in PBS (for C5 libraries) or 1% milk powder (for albumin library). Both phage and Nunc plates were blocked for 1 hour at room temperature. Nunc plates were washed using a 96-well microplate washer (BioTek) with a PBS solution contain 0.1% Tween20 (Sigma Aldrich). 100 of blocked phage solution was added to each well of Nunc MaxiSorp plate and left shaking at room temperature for 1 hour. Plates were washed and dried as previously described. 100 of an Anti-M13-Horse radish peroxidase conjugated antibody (GE Healthcare) diluted (1:5,000) in a 1% BSA or milk solution was added to each well and left shaking at room temperature for 1 hour. Plates were washed again and 50 μL of TMB solution (Merck Millipore) was added to each well. Plates were left shaking for 10 minutes. Absorbance was measured at 630 nm and 490 nm. Binding signals were obtained where Absorbance at 630 nm was >3-times the signal upon irrelevant antigen.
By monoclonal phage ELISA the following ultralong CDR-H3 sequences were identified as binders (OD>0.2 AU): […]

C5 [2] = biological target: T1, C5; test: Biacore multi-cycle kinetics on human C5; type: binding; settings: for mean stoichiometric ratio: measured Rmax divided by theoretical Rmax; for koff: read-out: mean Koff; for kon: read-out: mean Kon
Description: Binding of knob domain peptides to human C5 was measured by SPR, using a multi-cycle kinetics method as follows:
Kinetics were measured using a Biacore 8K (GE Healthcare) with a CM5 chip, which was prepared as follows: EDC/NHS was mixed at 1:1 ratio (flow rate, 10 μL/min; contact time, 30 seconds), human C5 protein at 1 μg/mL in pH 4.5 sodium-acetate buffer, were injected over flow cell one only (flow rate, 10 μL/min; contact time, 60 seconds). Final immobilization levels in the range of 2000-3000 response units (RU) were obtained, to yield theoretical Rmax values of ˜50-60 RU. Serial dilutions of peptide were prepared in HBS-EP buffer and injected (flow rate, 30 μL/min; contact time, 240 seconds; dissociation time, 6000 seconds). After each injection, the surface was regenerated with two sequential injections of 2M MgCl2 (flow rate, […]; contact time, 30 seconds). Binding to the reference surface was subtracted, and the data were fitted to a single site binding model, using Biacore evaluation software.

[3] = multi-cycle kinetics, n = 3 experiments

| Compound | Specificity (C5 [1]) | mean stoichiometric ratio (C5 [2]; n = 3 experiments) | koff (C5 [2]) | kon (C5 [2]) | koff (C5 [2]; [3]) | kon (C5 [2]; [3]) |
| --- | --- | --- | --- | --- | --- | --- |
| 606 (TCPEGLVYNSDQSRCCAADSGVCWEYWRGERVTRGFT; Anti-C5 ultralong CDR-H3 knob domain) [compound 606] | Human |  |  |  |  |  |
| 607 (TCPDGYSYSEGCGKGDDCGGVHCCANGGVTCWYRHCCSTGTDT; Anti-C5 ultralong CDR-H3 knob domain) [compound 607] | Human |  |  |  |  |  |
| 608 (RCPSNNEEATACRYSSVCGDYVCEGLSESYAQGWGACRRYACRDS; Anti-C5 ultralong CDR-H3 knob domain) [compound 608] | Human |  |  |  |  |  |
| 609 (SGCPPGYKSGVDCSPGSEYKWGCYAVDGRRYGGYGADSGVGST; Anti-C5 ultralong CDR-H3 knob domain) [compound 609] | Human |  |  |  |  |  |
| CC[C@H](C)[C@@H]1NC(=O)[C@H](C)NC(=O)[C@H](C(C)C)NC(=O)CNC(=O)[C@@H]2CSSC[C@@H](C(=O)NCC(=O)N[C@@H](Cc3c[nH]cn3)C(=O)N[C@@H](C)C(=O)N[C@@H](CC(C)C)C(=O)N[C@@H](CC(N)=O)C(=O)N[C@@H](CO)C(=O)NCC(=O)N3CCC[C@H]3C(=O)N[C@@H](CC(N)=O)C(=O)N[C@H](C(=O)N[C@@H](CO)C(=O)N3CCC[C@H]3C(=O)N[C@@H](Cc3ccc(O)cc3)C(=O)N[C@H](C(=O)N[C@@H](CO)C(=O)N[C@H](C(=O)O)[C@@H](C)O)C(C)C)[C@@H](C)CC)NC(=O)CNC(=O)[C@H](Cc3c[nH]c4ccccc34)NC(=O)[C@H](CCCNC(=N)N)NC(=O)CNC(=O)[C@H](CSSC[C@H](NC(=O)[C@@H](N)[C@@H](C)O)C(=O)N3CCC[C@H]3C(=O)N[C@@H](CCC(=O)O)C(=O)NCC(=O)N[C@@H](Cc3c[nH]c4ccccc34)C(=O)N[C@@H](CO)C(=O)N[C@@H](CCC(=O)O)C(=O)N2)NC(=O)[C@H](CCC(=O)O)NC(=O)[C@H](Cc2ccc(O)cc2)NC(=O)CNC(=O)[C@H](Cc2ccc(O)cc2)NC1=O [K92chemFE F26A] (H-TCPEGWSECGVAIYGYECGRWGCGHALNSGPNISPYVST-OH; disulfide 2-18, 9-23; N-terminus assumed) |  | 0.65 | 0.00328 s⁻¹ | 184000 M⁻¹ s⁻¹ |  |  |
| CC[C@H](C)[C@@H]1NC(=O)[C@H](C)NC(=O)[C@H](C(C)C)NC(=O)CNC(=O)[C@@H]2CSSC[C@@H](C(=O)NCC(=O)N[C@@H](Cc3c[nH]cn3)C(=O)N[C@@H](Cc3ccccc3)C(=O)N[C@@H](CC(C)C)C(=O)N[C@@H](CC(N)=O)C(=O)N[C@@H](CO)C(=O)NCC(=O)N3CCC[C@H]3C(=O)N[C@@H](CC(N)=O)C(=O)N[C@H](C(=O)N[C@@H](CO)C(=O)N3CCC[C@H]3C(=O)N[C@@H](Cc3ccc(O)cc3)C(=O)N[C@H](C(=O)N[C@@H](CO)C(=O)N[C@H](C(=O)O)[C@@H](C)O)C(C)C)[C@@H](C)CC)NC(=O)CNC(=O)[C@H](Cc3c[nH]c4ccccc34)NC(=O)[C@H](CCCNC(=N)N)NC(=O)CNC(=O)[C@H](CSSC[C@H](NC(=O)[C@@H](N)[C@@H](C)O)C(=O)N3CCC[C@H]3C(=O)N[C@@H](CCC(=O)O)C(=O)NCC(=O)N[C@@H](C)C(=O)N[C@@H](CO)C(=O)N[C@@H](CCC(=O)O)C(=O)N2)NC(=O)[C@H](CCC(=O)O)NC(=O)[C@H](Cc2ccc(O)cc2)NC(=O)CNC(=O)[C@H](Cc2ccc(O)cc2)NC1=O [K92chemFE W6A] (H-TCPEGASECGVAIYGYECGRWGCGHFLNSGPNISPYVST-OH; disulfide 2-18, 9-23; N-terminus assumed) |  | 0.60 |  |  | 0.00157 s⁻¹ | 7980 M⁻¹ s⁻¹ |
| CC[C@H](C)[C@@H]1NC(=O)[C@H](C)NC(=O)[C@H](C(C)C)NC(=O)CNC(=O)[C@@H]2CSSC[C@@H](C(=O)NCC(=O)N[C@@H](Cc3c[nH]cn3)C(=O)N[C@@H](Cc3ccccc3)C(=O)N[C@@H](CC(C)C)C(=O)N[C@@H](CC(N)=O)C(=O)N[C@@H](CO)C(=O)NCC(=O)N3CCC[C@H]3C(=O)N[C@@H](CC(N)=O)C(=O)N[C@H](C(=O)N[C@@H](CO)C(=O)N3CCC[C@H]3C(=O)N[C@@H](Cc3ccc(O)cc3)C(=O)N[C@H](C(=O)N[C@@H](CO)C(=O)N[C@H](C(=O)O)[C@@H](C)O)C(C)C)[C@@H](C)CC)NC(=O)CNC(=O)[C@H](C)NC(=O)[C@H](CCCNC(=N)N)NC(=O)CNC(=O)[C@H](CSSC[C@H](NC(=O)[C@@H](N)[C@@H](C)O)C(=O)N3CCC[C@H]3C(=O)N[C@@H](CCC(=O)O)C(=O)NCC(=O)N[C@@H](Cc3c[nH]c4ccccc34)C(=O)N[C@@H](CO)C(=O)N[C@@H](CCC(=O)O)C(=O)N2)NC(=O)[C@H](CCC(=O)O)NC(=O)[C@H](Cc2ccc(O)cc2)NC(=O)CNC(=O)[C@H](Cc2ccc(O)cc2)NC1=O [K92chemFE W21A] (H-TCPEGWSECGVAIYGYECGRAGCGHFLNSGPNISPYVST-OH; disulfide 2-18, 9-23; N-terminus assumed) |  | 0.62 |  |  | 0.00848 s⁻¹ | 17400 M⁻¹ s⁻¹ |
| CC[C@H](C)[C@@H]1NC(=O)[C@H](C)NC(=O)[C@H](C(C)C)NC(=O)CNC(=O)[C@@H]2CSSC[C@@H](C(=O)NCC(=O)N[C@@H](Cc3c[nH]cn3)C(=O)N[C@@H](Cc3ccccc3)C(=O)N[C@@H](CC(C)C)C(=O)N[C@@H](CC(N)=O)C(=O)N[C@@H](CO)C(=O)NCC(=O)N3CCC[C@H]3C(=O)N[C@@H](CC(N)=O)C(=O)N[C@H](C(=O)N[C@@H](CO)C(=O)N3CCC[C@H]3C(=O)N[C@@H](Cc3ccc(O)cc3)C(=O)N[C@H](C(=O)N[C@@H](CO)C(=O)N[C@H](C(=O)O)[C@@H](C)O)C(C)C)[C@@H](C)CC)NC(=O)CNC(=O)[C@H](Cc3c[nH]cn3)NC(=O)[C@H](CCCNC(=N)N)NC(=O)CNC(=O)[C@H](CSSC[C@H](NC(=O)[C@@H](N)[C@@H](C)O)C(=O)N3CCC[C@H]3C(=O)N[C@@H](CCC(=O)O)C(=O)NCC(=O)N[C@@H](Cc3c[nH]c4ccccc34)C(=O)N[C@@H](CO)C(=O)N[C@@H](CCC(=O)O)C(=O)N2)NC(=O)[C@H](CCC(=O)O)NC(=O)[C@H](Cc2ccc(O)cc2)NC(=O)CNC(=O)[C@H](Cc2ccc(O)cc2)NC1=O [K92chemFE W21H] (H-TCPEGWSECGVAIYGYECGRHGCGHFLNSGPNISPYVST-OH; disulfide 2-18, 9-23; N-terminus assumed) |  | 0.69 | 0.000612 s⁻¹ | 425000 M⁻¹ s⁻¹ |  |  |
| CC[C@H](C)[C@@H]1NC(=O)[C@H](C)NC(=O)[C@H](C(C)C)NC(=O)CNC(=O)[C@@H]2CSSC[C@@H](C(=O)NCC(=O)N[C@@H](Cc3c[nH]cn3)C(=O)N[C@@H](Cc3ccccc3)C(=O)N[C@@H](CC(C)C)C(=O)N[C@@H](CC(N)=O)C(=O)N[C@@H](CO)C(=O)NCC(=O)N3CCC[C@H]3C(=O)N[C@@H](CC(N)=O)C(=O)N[C@H](C(=O)N[C@@H](CO)C(=O)N3CCC[C@H]3C(=O)N[C@@H](Cc3ccc(O)cc3)C(=O)N[C@H](C(=O)N[C@@H](CO)C(=O)N[C@H](C(=O)O)[C@@H](C)O)C(C)C)[C@@H](C)CC)NC(=O)CNC(=O)[C@H](Cc3c[nH]c4ccccc34)NC(=O)[C@H](CCCNC(=N)N)NC(=O)CNC(=O)[C@H](CSSC[C@H](NC(=O)[C@@H](N)[C@@H](C)O)C(=O)N3CCC[C@H]3C(=O)N[C@@H](CCC(=O)O)C(=O)NCC(=O)N[C@@H](Cc3c[nH]c4ccccc34)C(=O)N[C@@H](CO)C(=O)N[C@@H](CCC(=O)O)C(=O)N2)NC(=O)[C@H](CCC(=O)O)NC(=O)[C@H](Cc2ccc(O)cc2)NC(=O)CNC(=O)[C@H](C)NC1=O [K92chemFE Y14A] (H-TCPEGWSECGVAIAGYECGRWGCGHFLNSGPNISPYVST-OH; disulfide 2-18, 9-23; N-terminus assumed) |  | 0.41 |  |  | 0.0001 s⁻¹ | 27200 M⁻¹ s⁻¹ |
